Measured values from patent US20130065818A1, “Arylamide Compounds And Compositions And Uses Thereof” (POLYMEDIX, priority 2006, published 2013).
Values after ≈ are worked out from the molar mass of the structure shown. Read-outs that look alike come from different tables or passages of the source.

Experiments:
[1] = system: Moraxella species (including Moraxella catarrhalis); assay: MIC, 25 ocular isolates, broth microdilution (Example 8); type: cell-based
Procedure: (§1) Mueller-Hinton Broth supplemented with 2% lysed horse blood in tubes was inoculated with 25 ocular isolates of Streptococcus pneumoniae, Streptococcus viridans group, and Moraxella species (including Moraxella catarrhalis) plus two controls (Staphylococcus aureus and E. coli) and incubated at 37° C. overnight. Additionally, Mueller-Hinton Broth in tubes was inoculated with two controls (Staphylococcus aureus and E. coli) and incubated at 37° C. overnight on a shaker set at 250 rpm.
(§2) On the day of testing, a 640 μg/ml (1280 μg/ml for Serratia marcescens and Pseudomonas aeruginosa) concentration was prepared from a 1% stock solution in 0.01% acetic acid, 0.2% BSA in polypropylene tubes.
(§3) Serial doubling dilutions in 0.01% acetic acid, 0.2% BSA in 96 well polypropylene plates, which are used as reservoirs for the inoculation of the test plates, were carried out to obtain serial dilutions of test agents at 10 times the required test concentrations: 640, 320, 160, 80, 40, 20, 10, 5, 2.5, 1.25, and 0.625 μg/ml (1280, 640, 320, 160, 80, 40, 20, 10, 5, 2.5, and 1.25 μg/ml for Serratia marcescens and Pseudomonas aeruginosa).
(§4) Ten μl of diluted 10×test agents was added to each well of one row of the 96 well polypropylene plates from column 2 to column 12 (column 1 is a control for bacteria alone, with no peptide). Test agent concentrations in columns 2-12 were as follows: 64, 32, 16, 8, 4, 2, 1, 0.5, 0.25, 0.125, and 0.0625 μg/ml (128, 64, 32, 16, 8, 4, 2, 1, 0.5, 0.25, and 0.125 μg/ml for Serratia marcescens and Pseudomonas aeruginosa). The same peptide was in each of the 8 rows. One plate contained dilutions of one test agent and 8 bacterial isolates.
(§5) On the day of testing, the overnight bacterial broth cultures of Streptococcus pneumoniae, Streptococcus viridans and Moraxella species (including Moraxella catarrhalis) plus two controls (Staphylococcus aureus and E. coli) were diluted in 5 ml of trypticase soy broth to yield turbidity equal to a 0.5 McFarland standard. The final inoculum for MIC testing for Streptococcus pneumoniae, Streptococcus viridans and Moraxella species (including Moraxella catarrhalis) was achieved by placing 0.1 ml of the turbidity adjusted sample to 5 ml of Mueller-Hinton broth containing 2% lysed horse red blood cells.
(§6) Ninety μl of the bacterial suspensions was dispensed in each well from column 1 to column 12. Each bacterial isolate was placed in one row of a 96 well polypropylene plate containing the test agents. The plates were placed on shaker at 15 minutes at room temperature, and then incubated at 37° C. overnight. MICs were determined visually as the lowest concentration of drug that inhibits visible bacterial growth.

Streptococcus pneumoniae = assay: as above; type: cell-based
Procedure: as §1, §2, §3, §4, §5, §6

[2] = n=25 isolates, >64 replaced with 128

Question: Which results are given for `N=C(N)NCCCCC(=O)Nc1cc(C(F)(F)F)cc(NC(=O)c2cnc(C(=O)Nc3cc(C(F)(F)F)cc(NC(=O)CCCCNC(=N)N)c3SCCN)cn2)c1SCCN` [Oligomer 5]?
Answer: MIC ([1]; Moraxella, 25 ocular isolates, Mueller-Hinton broth with 2% lysed horse red blood cells, read-out: Median MIC): ≤ 4 µg/mL; MIC ([1]; Moraxella, isolate 1 K1614 - MS, read-out: MIC): 64 µg/mL (≈ 69.8 µM); MIC ([1]; Moraxella, isolate 2 K1661 - MS, read-out: MIC): 16 µg/mL (≈ 17.4 µM); MIC ([1]; Moraxella, isolate 3 K1643 - MS, read-out: MIC): 0.125 µg/mL (≈ 0.136 µM); MIC ([1]; Moraxella, isolate 4 K1640 - MS, read-out: MIC): 8 µg/mL (≈ 8.72 µM); MIC ([1]; Moraxella, isolate 5 B1431 - MS, read-out: MIC): 0.5 µg/mL (≈ 0.545 µM); MIC ([1]; Moraxella, isolate 6 B1429 - MS, read-out: MIC): 1 µg/mL (≈ 1.09 µM); MIC ([1]; Moraxella, isolate 7 B1418 - MS, read-out: MIC): 0.25 µg/mL (≈ 0.273 µM); MIC ([1]; Moraxella, isolate 8 K1784 - MS, read-out: MIC): 0.25 µg/mL (≈ 0.273 µM); MIC ([1]; Moraxella, isolate 9 K1773 - MS, read-out: MIC): 0.25 µg/mL (≈ 0.273 µM); MIC ([1]; Moraxella, isolate 10 K1369 - MS, read-out: MIC): 2 µg/mL (≈ 2.18 µM); MIC ([1]; Moraxella, isolate 11 B1275 - MS, read-out: MIC): 0.125 µg/mL (≈ 0.136 µM); MIC ([1]; Moraxella, isolate 12 B1221 - MS, read-out: MIC): 0.125 µg/mL (≈ 0.136 µM); MIC ([1]; Moraxella, isolate 13 B1172 - MS, read-out: MIC): > 64 µg/mL; MIC ([1]; Moraxella, isolate 14 E542 - MS, read-out: MIC): 2 µg/mL (≈ 2.18 µM); MIC ([1]; Moraxella, isolate 15 K678 - MS, read-out: MIC): 0.5 µg/mL (≈ 0.545 µM); MIC ([1]; Moraxella, isolate 16 K660 - MS, read-out: MIC): 0.25 µg/mL (≈ 0.273 µM); MIC ([1]; Moraxella, isolate 17 K599 - MC, read-out: MIC): 0.25 µg/mL (≈ 0.273 µM); MIC ([1]; Moraxella, isolate 18 K1650 - MC, read-out: MIC): 0.25 µg/mL (≈ 0.273 µM); MIC ([1]; Moraxella, isolate 19 K1373 - MC, read-out: MIC): 0.125 µg/mL (≈ 0.136 µM); MIC ([1]; Moraxella, isolate 20 K1553 - MC, read-out: MIC): 2 µg/mL (≈ 2.18 µM); MIC ([1]; Moraxella, isolate 21 K1453 - MC, read-out: MIC): 64 µg/mL (≈ 69.8 µM); MIC ([1]; Moraxella, isolate 22 K1227 - MC, read-out: MIC): 1 µg/mL (≈ 1.09 µM); MIC ([1]; Moraxella, isolate 23 B1102 - MC, read-out: MIC): 0.5 µg/mL (≈ 0.545 µM); MIC ([1]; Moraxella, isolate 24 K1819 - MC, read-out: MIC): 32 µg/mL (≈ 34.9 µM); MIC ([1]; Moraxella, isolate 25 K1855 - MC, read-out: MIC): 8 µg/mL (≈ 8.72 µM); MIC50 ([1]; Moraxella, n=25 isolates, >64 replaced with 128, read-out: MIC50): 0.5 µg/mL (≈ 0.545 µM); MIC90 ([1]; Moraxella, n=25 isolates, >64 replaced with 128, read-out: MIC90): 32 µg/mL (≈ 34.9 µM); MIC ([1]; Moraxella, n=25 isolates, >64 replaced with 128, read-out: Median MIC): 0.5 µg/mL (≈ 0.545 µM); MIC50 [1, 2]: 0.5 µg/mL (≈ 0.545 µM); MIC90 [1, 2]: 32 µg/mL (≈ 34.9 µM); Range of MICs [1, 2]: 0.125 to 128 µg/mL; MIC50 (Streptococcus pneumoniae; 25 isolates, Row 13): 4 µg/mL (≈ 4.36 µM); MIC90 (Streptococcus pneumoniae; 25 isolates, Row 22): 16 µg/mL (≈ 17.4 µM); Range of MICs (Streptococcus pneumoniae; 25 isolates, Summary of Results, >64 was Replaced with 128): 4 to 128 µg/mL; MIC (Streptococcus pneumoniae; Streptococcus pneumoniae, 25 ocular isolates, Mueller-Hinton broth with 2% lysed horse red blood cells, read-out: Median MIC): ≤ 4 µg/mL; MIC (Streptococcus pneumoniae; Streptococcus pneumoniae, isolate 1—B1386, read-out: MIC): > 64 µg/mL; MIC (Streptococcus pneumoniae; Streptococcus pneumoniae, isolate 2—B1380, read-out: MIC): 4 µg/mL (≈ 4.36 µM); MIC (Streptococcus pneumoniae; Streptococcus pneumoniae, isolate 3—B1378, read-out: MIC): 0.5 µg/mL (≈ 0.545 µM); MIC (Streptococcus pneumoniae; Streptococcus pneumoniae, isolate 4—B1377, read-out: MIC): 8 µg/mL (≈ 8.72 µM); MIC (Streptococcus pneumoniae; Streptococcus pneumoniae, isolate 5—B1373, read-out: MIC): 8 µg/mL (≈ 8.72 µM); MIC (Streptococcus pneumoniae; Streptococcus pneumoniae, isolate 6—B1367, read-out: MIC): 16 µg/mL (≈ 17.4 µM); MIC (Streptococcus pneumoniae; Streptococcus pneumoniae, isolate 7—B1355, read-out: MIC): 8 µg/mL (≈ 8.72 µM); MIC (Streptococcus pneumoniae; Streptococcus pneumoniae, isolate 8—B1353, read-out: MIC): 4 µg/mL (≈ 4.36 µM); MIC (Streptococcus pneumoniae; Streptococcus pneumoniae, isolate 9—B1351, read-out: MIC): 1 µg/mL (≈ 1.09 µM); MIC (Streptococcus pneumoniae; Streptococcus pneumoniae, isolate 10—B1339, read-out: MIC): 2 µg/mL (≈ 2.18 µM); MIC (Streptococcus pneumoniae; Streptococcus pneumoniae, isolate 11—B1337, read-out: MIC): 1 µg/mL (≈ 1.09 µM); MIC (Streptococcus pneumoniae; Streptococcus pneumoniae, isolate 12—B1335, read-out: MIC): 1 µg/mL (≈ 1.09 µM); MIC (Streptococcus pneumoniae; Streptococcus pneumoniae, isolate 13—B1334, read-out: MIC): 1 µg/mL (≈ 1.09 µM); MIC (Streptococcus pneumoniae; Streptococcus pneumoniae, isolate 14—B1333, read-out: MIC): 1 µg/mL (≈ 1.09 µM); MIC (Streptococcus pneumoniae; Streptococcus pneumoniae, isolate 15—B1255, read-out: MIC): 1 µg/mL (≈ 1.09 µM); MIC (Streptococcus pneumoniae; Streptococcus pneumoniae, isolate 16—B1288, read-out: MIC): 8 µg/mL (≈ 8.72 µM); MIC (Streptococcus pneumoniae; Streptococcus pneumoniae, isolate 17—B1287, read-out: MIC): 16 µg/mL (≈ 17.4 µM); MIC (Streptococcus pneumoniae; Streptococcus pneumoniae, isolate 18—B1272, read-out: MIC): 1 µg/mL (≈ 1.09 µM); MIC (Streptococcus pneumoniae; Streptococcus pneumoniae, isolate 19—B1264, read-out: MIC): 1 µg/mL (≈ 1.09 µM); MIC (Streptococcus pneumoniae; Streptococcus pneumoniae, isolate 20—B1252, read-out: MIC): 16 µg/mL (≈ 17.4 µM); MIC (Streptococcus pneumoniae; Streptococcus pneumoniae, isolate 21—B1245, read-out: MIC): 2 µg/mL (≈ 2.18 µM); MIC (Streptococcus pneumoniae; Streptococcus pneumoniae, isolate 22—B1211, read-out: MIC): 8 µg/mL (≈ 8.72 µM); MIC (Streptococcus pneumoniae; Streptococcus pneumoniae, isolate 23—B1213, read-out: MIC): 16 µg/mL (≈ 17.4 µM); MIC (Streptococcus pneumoniae; Streptococcus pneumoniae, isolate 24—B1208, read-out: MIC): 8 µg/mL (≈ 8.72 µM); MIC (Streptococcus pneumoniae; Streptococcus pneumoniae, isolate 25—B1214, read-out: MIC): 4 µg/mL (≈ 4.36 µM); MIC (Streptococcus pneumoniae; Streptococcus pneumoniae, n=25 per group, read-out: Median MIC): 4 µg/mL (≈ 4.36 µM); MIC50 (Streptococcus pneumoniae; Streptococcus pneumoniae, 25 isolates, Summary of Results, read-out: MIC50): 4 µg/mL (≈ 4.36 µM); MIC90 (Streptococcus pneumoniae; Streptococcus pneumoniae, 25 isolates, Summary of Results, read-out: MIC90): 16 µg/mL (≈ 17.4 µM); MIC (Streptococcus pneumoniae; Streptococcus pneumoniae, 25 isolates, Summary of Results, read-out: Median MIC): 4 µg/mL (≈ 4.36 µM); MIC50 (Streptococcus pneumoniae; n=25 per group): 4 µg/mL (≈ 4.36 µM); MIC90 (Streptococcus pneumoniae; n=25 per group): 16 µg/mL (≈ 17.4 µM); Range of MICs (Streptococcus pneumoniae; n=25 per group): 4 to 128 µg/mL
